In series [1] the test system is rabbit antisera against the hapten sulfathiazole (STZ), capping antibody. Description: Biphasic extraction assay: fluorescence of CHCl3 phase after dye extraction from M7-A1@B suspensions in raw milk. Format: binding. On the procedure:
(§1) Capping of the material was performed following the same conditions as for the preparation of M4-A1 @B, but in this case 1 mg of the mesoporous silica was suspended in 450 μL of PBS containing 360 ppm of BODIPY-PEG and 2 μL of the serum for 30 min. Thereafter, 50 μL of BSA solution (5%) were added to the suspensions and stirred for another 1.5 h. […] Before centrifuging the suspension in the last washing cycle, it was divided into 10 fractions, which were dried separately for 1 h in the vacuum at room temperature and stored in the fridge, yielding 10 fractions of ca. 100 μg of M7-A1@B.
Next, the effect of the concentration of STZ and SPY was studied. For this purpose, we repeated the procedure but added different concentrations of the corresponding sulfonamide into each fraction and took an aliquot from the chloroform phase after 10 min of reaction (FIG. 10). In this case, milk stored in the fridge for 5 and 7 d was used. It is obvious that a highly sensitive response could be found in both cases, with an LOQ of 0.5±0.1 ppb and an IC50 of 0.8±0.1 ppb for STZ. For SPY, both the fluorescence increase and the sensitivity are lower (LOQ: 4.6±2.2 ppb, IC50: 16.2±6.9 ppb).
The red points were classified as outliers and not considered in the fit (N=2, only one repetition shown).
The sensitivity could further be improved by increasing the number of washing cycles of the material before use, although the fluorescence enhancement is lower due to partial dye removal during continued washing. […] Furthermore, the amount of dye released in the working range of the assay at lower STZ concentrations (100 ppt) is at least 100 times higher, preferably 200-times higher than that of antibody displaced, decreasing to 80-times at concentrations higher than 50 ppb, which is a remarkable sign of signal amplification especially in the desired low-concentration range.

Series [2] shares this test system. In words: Fluorescence of supernatants of M4-A1@B (SRB-loaded, antibody-gated MCM-41) suspensions after adding STZ prepared in milk. Format: binding. Particulars: M4-A1@B suspension in PBS, STZ solutions prepared in milk, λem=585 nm, λexc=560 nm, logistic fit. On the procedure: The pores of the particles were filled with the dye sulforhodamine B (SRB). With the aim of loading the maximum amount of dye into the MCM-41 scaffold, a solution of the dye SRB sodium salt (2 mmol L^−1) was prepared in acetonitrile. Then, 2 portions of 12.0 mL were added to 300 mg of each MCM-41 nano- or microparticle material, yielding a suspension with a concentration of 0.8 mmol dye (g solid)^−1. The suspension was stirred for 24 h at room temperature. Two fractions of each type of material (2×40 mL) were centrifuged (5 min at 6000 rpm) and concentrated in a final volume of 1.5 mL. Thereafter, volumes of 0.14 mL and 0.7 mL of hapten solution (0.02 and 0.01 mmol) in DMF were added, arriving at final suspensions of 0.2 and 0.1 mmol (g solid)^−1. The resulting suspensions were stirred for 5.5 h at room temperature. Finally, the suspensions were centrifuged (5 min at 6000 rpm), and the solids obtained were washed with acetonitrile (0.75 mL), isolated by centrifugation, and dried at 35° C. in vacuum during 12 h. […]
The fluorescence enhancement caused by STZ at different concentrations was assessed in milk as well. […] Then, 6 μL of STZ solutions of different concentrations were added to the other fractions, the vials shaken by hand for 20 s and centrifuged before measuring the fluorescence of the supernatants in a fluorometer (λem=585 nm, λexc=560 nm).

The test system is the same in series [3]. Description: Lateral flow test strips spotted with M4-A1@B, developed in raw milk spiked with STZ, fluorescence reader. It counts as binding. Particulars: M4-A1@B on nitrocellulose strips, ratio FB/(FA+FB) with lateral flow reader, data considerably noisy. From the text: As explained above, after development the strips show two different zones, a first one (zone A) at which the sensing material (indicator reservoir) has been deposited, and a second one (zone B) in which the released dye is collected that could travel with the solvent front (see FIGS. 2, 7).
In case of absence of a sulfonamide, the second zone (zone B in FIG. 7) should show minimum signal. In case of presence, the fluorescence in that zone should correlate with analyte concentration. The amount of dye released can be quantified with a fluorescence reader with appropriate excitation and emission wavelengths or by taking pictures under proper light excitation conditions. Strips were prepared using a Hi-Flow nitrocellulose paper from Millipore®. […]
Afterwards, the strips were dipped into 150 μL of raw milk spiked with various amounts of STZ, developed and let dried at room temperature. […] Afterwards, the fluorescence histograms were registered with a lateral flow reader and a home-made housing equipped with an LED (λexc 505 nm) as excitation source and filters (532 nm cut-off and 550 nm long-pass) that can be fitted to a conventional digital camera. […] FIG. 6 c) (luminance of dye released in second zone and FIG. 6 d) (ratio of luminance) allows to compare the reader results with those obtained by extracting the luminance from images taken with a camera. […]

The test system is the same in series [4]. In words: Fluorescence of supernatants of M7-A1@B (BODIPY-PEG-loaded, antibody-gated) suspensions in milk. Format: binding. Particulars: M7-A1@B suspension in milk, 10 min, 535 nm (λexc=515 nm), logistic fit. As to the method:
as §1
In an attempt to avoid the extraction process, and with the aim to compare the effect of different dyes to M4-A1 @B, respectively, first of all the material M7-A1@B was tested in absence and in presence of several amounts of STZ following similar a procedure as explained previously. For that purpose, two independent experiments were performed, using in one case milk provided from FOSS stored in the fridge (6 d) and fresh milk from Poland (1 d in the fridge). […] Then, 20 μL of STZ solutions of different concentrations were added to the rest of the fractions (80 μL), the vials were shaken in the thermomixer at 800 rpm for 10 min, centrifuged and the fluorescence of the supernatants measured at 535 nm with λexc=515 nm (FIG. 9).

A short description of series [5]: Dye partitioning from water/milk to CHCl3. It counts as physicochemical. The conditions noted are these: phase transfer from water/milk to CHCl3. On the procedure: as §1
Where [6] appears, read: M7-A1@B in raw milk, CHCl3 phase, 10 min reaction, 538 nm (λexc=515 nm).
Where [7] appears, read: M7-A1@B, increased number of washing cycles of the material before use.

Take `Nc1ccc(S(=O)(=O)Nc2ccccn2)cc1` [SPY, sulfapyridine]: in series [1] (setting [6]), the IC50 was determined as 16.2±6.9 ppb and the LOQ was 4.6±2.2 ppb. Moreover, in series [1] (setting [7]), the IC50 came to 4.4±1.7 ppb and the LOQ was determined as 0.78±0.38 ppb.

Consider `Nc1ccc(S(=O)(=O)Nc2nccs2)cc1` [STZ, sulfathiazole], for which the “IC20, i.e. limit of quantification (LOQ)” value in series [2] was found to be 87±8 ppb. In addition, the IC50 is listed as 172±12 ppb in series [2]; “below 1 ppb” in series [3]; 1.5±1.4 ppb in series [4]; 0.8±0.1 ppb in series [1] (setting [6]); 0.28±0.15 ppb in series [1] (setting [7]). In series [4], the “limit of quantification (LOQ)” value is on record as 65±18 ppt. Further, the LOQ turned out to be 0.5±0.1 ppb in series [1] (setting [6]) and 0.02±0.01 ppb in series [1] (setting [7]).

As for `CCN(CC)c1ccc2c(-c3ccc(S(=O)(=O)O)cc3S(=O)(=O)[O-])c3ccc(=[N+](CC)CC)cc-3oc2c1` [sulforhodamine B], the dye partitioning coefficient entry in series [5] was “too low to undergo efficient phase transfer”.

These data come from patent publication US20200124597A1, “INDICATOR RELEASE SYSTEM FOR THE DETECTION OF AN ANALYTE IN A FOODSTUFF, TEST STRIP THEREFOR, AND ANALYSIS METHOD” (Bundesrepublik Deutschland, vertreten durch die …, priority 2017, published 2020).
